In publication PMC3172709 (Journal of pharmacy & pharmaceutical sciences : a …, 2011):
“And” between values parts separate entries of the source, which are not always exact repeats. Equal entries are not always repeated. Where two headings read alike, the source gives them in different places.

What was measured:
[1] = test system: P-gp
[2] = test system: P-gp; assay: in vitro; details: human, EC50 to up-regulate P-gp expression
[3] = ref Facts & Comparisons 4.0, online edition, cited from earlier work
[4] = test system: MDR1 mRNA; details: LS-180 cells, 48 h, 50 μM
[5] = test system: P-gp; assay: in vitro; details: human, EC50 to up-regulate P-gp activity
[6] = test system: P-gp; assay: Western blot analysis of P-gp protein expression in drug-treated LS-180 cells
[7] = test system: P-gp; details: rat, three-day in vivo treatment, 20 mg/kg once daily; cited from earlier work

Cn1c(=O)c2c(ncn2C)n(C)c1=O [Caffeine, caffeine]
increase in P-gp activity [1]: 250–300% | EC50 at 48 h [2]: 9.1 µM | plasma concentration, range ([3]; after 250 mg dose): 25 to 130 µM

C[C@@H]1C[C@H]2[C@@H]3CCC4=CC(=O)C=C[C@]4(C)[C@@]3(F)[C@@H](O)C[C@]2(C)[C@@]1(O)C(=O)CO [Dexamethasone, dexamethasone]
EC50 at 48 h [2]: 46 µM

C1CCc2nnnn2CC1 [Pentylenetetrazole, pentylenetetrazole]
fold increase in MDR1 mRNA level [4]: ~ 3 fold and 3–4 fold | induction in P-gp activity ([1]; LS-180 cells, 48 h, 50 μM): 70% | increase in P-gp activity ([1]; LS-180 cells, 48 h, concentration range 25–100 μM): ~ 80% | increase in P-gp activity ([1]; LS-180 cells, 48 h, concentration range 25–100 μM, listed as pentylenetetrazole): 80% | Emax (fold ↑ in P-gp activity) ([1]; LS-180 cells, 48 h, four-parameter Hill fit): 2.0 fold | EC50 at 48 h [5]: 11.8 µM | increase in P-gp expression ([6]; 48 h, 50 μM): ~ 10% | increase in P-gp expression ([6]; 48 h, 100 μM): 100% | up-regulation of P-gp protein levels ([6]; 48 h, concentrations at 50 μM and higher): ≤ 2 fold | EC50 at 48 h ([6]; human, EC50 to up-regulate P-gp expression, following normalization to 100%): > 50 µM

CO[C@H]1/C=C/O[C@@]2(C)Oc3c(C)c(O)c4c(O)c(c(/C=N/N5CCN(C)CC5)c(O)c4c3C2=O)NC(=O)/C(C)=C\C=C\[C@H](C)[C@H](O)[C@@H](C)[C@@H](O)[C@@H](C)[C@H](OC(C)=O)[C@@H]1C [Rifampicin]
increase in P-gp activity ([1]; LS-180 cells, 48 h, over the range 5–100 μM): 60–290% | EC50 at 48 h [2]: 5 µM | plasma concentrations, range ([3]; following 600 mg dose): 5 to 38 µM

CC(C)c1nc(CN(C)C(=O)N[C@H](C(=O)N[C@@H](Cc2ccccc2)C[C@H](O)[C@H](Cc2ccccc2)NC(=O)OCc2cncs2)C(C)C)cs1 [ritonavir]
increase in P-gp expression at the BBB [7]: 30%

hyperforin
increase in P-gp activity ([1]; LS-180 cells, 48 h, 50 nM): 110% | increase in P-gp activity ([1]; LS-180 cells, 48 h, 150 nM): 190%
